Measurements as given in ChEMBL document CHEMBL6121036, “Evaluation of Cereblon-Directing Warheads for the Development of Orally Bioavailable PROTACs” (J Med Chem, 2025).
pIC50: −log10 of the molar value. ≈ marks a conversion by molar mass, not a printed value. Calls of active or inactive are those of the source. The rule behind the calls is not given here.

Columns and labels:
[1] = target: Protein cereblon/Bromodomain-containing protein 4/DNA damage-binding protein 1 (Homo sapiens) (UniProt O60885+Q96SW2+Q16531); assay: Binding affinity to his-tagged CRBN/DDB1/GST-tagged BRD4 (49 to 170 residues)(unknown origin) assessed as ternary complex formation (AUC) incubated for 1 hr by luminescence based Alphascreen assay; format: protein assay
[2] = Effect on FGL2 level in human MV4-11 cells assessed as fold change at 100 nM measured after 4 hrs; format: functional
[3] = Effect on CCND3 level in human MV4-11 cells assessed as fold change at 100 nM measured after 4 hrs; format: functional
MV4-11 = assay: Cytotoxicity against human MV4-11 cells assessed as reduction in cell viability incubated for 72 hrs by cell-titer glo assay; format: functional, cell-based; conditions: MV4-11, 72 h
[4] = Effect on NOP53 level in human MV4-11 cells assessed as fold change at 100 nM measured after 4 hrs; format: functional
[5] = Permeability in MDCK-II cells incubated for 1 hr by UPLC/MS/UV analysis; format: ADME, cell-based, Canis lupus familiaris; conditions: dog, read-out: permeability
[6] = Effect on NSA2 level in human MV4-11 cells assessed as fold change at 100 nM measured after 4 hrs; format: functional
[7] = Effect on PLAU level in human MV4-11 cells assessed as fold change at 100 nM measured after 4 hrs; format: functional
[8] = Effect on BRD4 level in human MV4-11 cells assessed as fold change at 100 nM measured after 4 hrs; format: functional
[9] = Effect on RNF166 level in human MV4-11 cells assessed as fold change at 100 nM measured after 4 hrs; format: functional
[10] = Chemical stability in human MV4-11 cell culture media at 400 uM measured upto 72 hrs by UPLC analysis; format: physicochemical
[11] = target: T1, Protein cereblon/Bromodomain-containing protein 4 (Homo sapiens, UniProt O60885+Q96SW2); assay: PROTAC activity at CRBN/Hibit-tagged BRD4 (unknown origin) expressed in HEK293 cells co-expressing LgBiT assessed as degradation rate incubated for 24 hrs by […] glo-max assay; format: cell-based
[12] = Effect on MCL1 level in human MV4-11 cells assessed as fold change at 100 nM measured after 4 hrs; format: functional
[13] = AUC last in female CD1 mouse at 10 mg/kg, po measured upto 24 hrs by LC-MS/MS analysis; format: ADME, organism-based; conditions: in vivo
[14] = Cmax in female CD1 mouse at 10 mg/kg, po measured upto 24 hrs by LC-MS/MS analysis; format: ADME, organism-based; conditions: in vivo
[15] = Effect on ZBTB21 level in human MV4-11 cells assessed as fold change at 100 nM measured after 4 hrs; format: functional
[16] = Effect on AURKA level in human MV4-11 cells assessed as fold change at 100 nM measured after 4 hrs; format: functional
[17] = Effect on BRD3 level in human MV4-11 cells assessed as fold change at 100 nM measured after 4 hrs; format: functional
[18] = target: T1, Protein cereblon/Bromodomain-containing protein 4; assay: PROTAC activity at CRBN/Hibit-tagged BRD4 (unknown origin) expressed in HEK293 cells co-expressing LgBiT assessed as degradation of BRD4 incubated for 24 hrs by […] glo-max assay; format: cell-based
[19] = Effect on ZFP36L2 level in human MV4-11 cells assessed as fold change at 100 nM measured after 4 hrs; format: functional
[20] = Effect on BRD2 level in human MV4-11 cells assessed as fold change at 100 nM measured after 4 hrs; format: functional
[21] = Chemical stability in human HD-MB03 cell culture media at 400 uM measured upto 72 hrs by UPLC analysis; format: physicochemical
[22] = Metabolic stability in mouse liver microsomes assessed as half life; format: ADME, Microsome; conditions: liver microsomes
[23] = Kinetic aqueous solubility of the compound at pH 7.4; format: physicochemical; conditions: read-out: Kinetic_solubility
[24] = Effect on CDC42EP3 level in human MV4-11 cells assessed as fold change at 100 nM measured after 4 hrs; format: functional
[25] = Effect on PLK1 level in human MV4-11 cells assessed as fold change at 100 nM measured after 4 hrs; format: functional
[26] = Effect on TP53 level in human MV4-11 cells assessed as fold change at 100 nM measured after 4 hrs; format: functional
HD-MB03 = assay: Cytotoxicity against human HD-MB03 cells assessed as reduction in cell viability incubated for 72 hrs by cell-titer glo assay; format: functional, cell-based; conditions: HD-MB03, 72 h
[27] = Effect on FYTTD1 level in human MV4-11 cells assessed as fold change at 100 nM measured after 4 hrs; format: functional
[28] = target: T1, Protein cereblon/Bromodomain-containing protein 4; assay: PROTAC activity at CRBN/Hibit-tagged BRD4 (unknown origin) expressed in HEK293 cells co-expressing LgBiT assessed as degradation of BRD4 incubated for 24 hrs by […] glo-max assay relative to control; format: cell-based
[29] = Stability in mouse plasma assessed as half life by UPLC-MS/MS analysis; format: ADME, cell-free
[30] = Effect on MYC level in human MV4-11 cells assessed as fold change at 100 nM measured after 4 hrs; format: functional
[31] = Effect on CCNF level in human MV4-11 cells assessed as fold change at 100 nM measured after 4 hrs; format: functional
[32] = target: T2, Protein cereblon/Bromodomain-containing protein 2 (Homo sapiens) (UniProt P25440+Q96SW2); assay: PROTAC activity at CRBN/Hibit-tagged CRISPR BRD2 (unknown origin) expressed in HEK293 cells coexpressing LgBiT assessed as degradation of BRD2 measured after 10 to 14 hrs by […] glo-max assay; format: cell-based; conditions: time 10-14 hrs
[33] = target: T1, Protein cereblon/Bromodomain-containing protein 4; assay: PROTAC activity at CRBN/Hibit-tagged CRISPR BRD4 (unknown origin) expressed in HEK293 cells co-expressing LgBiT assessed as degradation of BRD4 by […] glo-max assay; format: cell-based
[34] = target: Protein cereblon (Homo sapiens) (UniProt Q96SW2); assay: Binding affinity to CRBN (unknown origin)
[35] = target: T2, Protein cereblon/Bromodomain-containing protein 2 (Homo sapiens); assay: PROTAC activity at CRBN/Hibit-tagged CRISPR BRD2 (unknown origin) expressed in HEK293 cells coexpressing LgBiT assessed as degradation of BRD2 by […] glo-max assay; format: cell-based
[36] = target: T1, Protein cereblon/Bromodomain-containing protein 4; assay: PROTAC activity at CRBN/Hibit-tagged CRISPR BRD4 (unknown origin) expressed in HEK293 cells co-expressing LgBiT assessed as degradation of BRD4 by […] glo-max assay relative to control; format: cell-based
HEK293 = assay: Cytotoxicity against HEK293 cells expressing LgBiT fused HiBiT-BRD2 measured after 24 hrs by cell titer-glo assay; format: toxicity, cell-based; conditions: human, hek293, 24 h
[37] = target: T1, Protein cereblon/Bromodomain-containing protein 4; assay: PROTAC activity at CRBN/Hibit-tagged CRISPR BRD4 (unknown origin) expressed in HEK293 cells co-expressing LgBiT assessed as degradation of BRD4 measured after 18 to 24 hrs by […] glo-max assay; format: cell-based; conditions: time 18-24 hrs
[38] = target: T3, Protein cereblon/Bromodomain-containing protein 3 (Homo sapiens) (UniProt Q15059+Q96SW2); assay: PROTAC activity at CRBN/Hibit-tagged CRISPR BRD3 (unknown origin) expressed in HEK293 cells co-expressing LgBiT assessed as degradation of BRD3 by […] glo-max assay; format: cell-based
[39] = target: T2, Protein cereblon/Bromodomain-containing protein 2 (Homo sapiens); assay: PROTAC activity at CRBN/Hibit-tagged CRISPR BRD2 (unknown origin) expressed in HEK293 cells coexpressing LgBiT assessed as degradation of BRD2 by […] glo-max assay relative to control; format: cell-based
[40] = target: T3, Protein cereblon/Bromodomain-containing protein 3 (Homo sapiens); assay: PROTAC activity at CRBN/Hibit-tagged CRISPR BRD3 (unknown origin) expressed in HEK293 cells co-expressing LgBiT assessed as degradation of BRD3 measured after 13 to 16 hrs by […] glo-max assay; format: cell-based; conditions: time 13-16 hrs
[41] = target: T3, Protein cereblon/Bromodomain-containing protein 3 (Homo sapiens); assay: PROTAC activity at CRBN/Hibit-tagged CRISPR BRD3 (unknown origin) expressed in HEK293 cells co-expressing LgBiT assessed as degradation of BRD3 by […] glo-max assay relative to control; format: cell-based

| SMILES | Activity [1] | fold change (FC) [2] | fold change (FC) [3] | pIC50 (MV4-11) | fold change (FC) [4] | Papp at 1 h [5] | fold change (FC) [6] | fold change (FC) [7] | fold change (FC) [8] | fold change (FC) [9] | Activity [11] | fold change (FC) [12] | fold change (FC) [15] | fold change (FC) [16] | fold change (FC) [17] | DC50 [18] | fold change (FC) [19] | fold change (FC) [20] | half-life [22] | solubility kinetic [23] | other results |
| --- | --- | --- | --- | --- | --- | --- | --- | --- | --- | --- | --- | --- | --- | --- | --- | --- | --- | --- | --- | --- | --- |
| Cc1sc2c(c1C)C(c1ccc(Cl)cc1)=N[C@@H](CC(=O)N1CCC(CN3CCN(c4ccc(N5CCC(=O)NC5=O)cc4)CC3)CC1)c1nnc(C)n1-2 | Active | -1 | -0.7 | 9.18 | -0.72 | 0.29 ×10⁻⁶ cm/s | -0.85 | -0.89 | -2.92 | -0.3 | 0.047 fRLU/hr | -1.01 | -0.1 | -0.74 | -2.99 | 2.74 nM | -0.91 | -2.79 | 1.42 h | 72.5 µM (≈ 54.7 µg/mL) | Stability [10]: Stable; AUC(0-t) at 24 h [13]: 1420 ng·h/mL; Cmax [14]: 345 ng/mL; Stability [21]: Stable; fold change (FC) [24]: -1.16; fold change (FC) [25]: -0.67; fold change (FC) [26]: 1.65; pIC50 (HD-MB03): 7.82; fold change (FC) [27]: -1.21; Emax [28]: 46.4%; half-life [29]: 16.5 h; fold change (FC) [30]: -2.09; fold change (FC) [31]: -0.89 |
| Cc1sc2c(c1C)C(c1ccc(Cl)cc1)=N[C@@H](CC(=O)N1CCC(CN3CCN(c4ccc5c(c4)CN(C4CCC(=O)NC4=O)C5=O)CC3)CC1)c1nnc(C)n1-2 (stereo partly drawn) | Active | -1.05 | -0.97 | 9.85 | -0.82 | 3.4 ×10⁻⁶ cm/s | -1.06 | -1.05 | -3.57 | -0.92 | 0.201 fRLU/hr | -1.06 | -0.1 | -0.9 | -3.9 | 0.58 nM | -1 | -2.91 | 0.75 h | 48.4 µM (≈ 39.1 µg/mL) | Activity [32]: Active; Activity [33]: Active; Activity [34]: Active; Activity [35]: Active; Activity [36]: > 90%; Activity (HEK293): Non-toxic; Activity [37]: Active; fold change (FC) [24]: -1.25; fold change (FC) [25]: -0.78; fold change (FC) [26]: 1.87; pIC50 (HD-MB03): 8.81; fold change (FC) [27]: -1.54; Emax [28]: 96.6%; Activity [38]: Active; Activity [39]: > 95%; half-life [29]: 29.8 h; fold change (FC) [30]: -1.72; fold change (FC) [31]: -1.47; Activity [40]: Active; Activity [41]: > 95% |
